Tests used:
[1] = tested on: H-2D^d, H-2K^d or H-2L^d complexes; test: T2 peptide binding assay, respective MHC class I complexes; settings: Figure 3A; TAP-deficient T2 cells, 100 µM to 0.1 µM peptide, 14 h at 37°C, FACS
Protocol: Figure 3 Contributing mechanisms of immunodominance. […] T2 cell lines were incubated with decreasing peptide concentrations ranging from 100 µM to 0.1 µM indicated above the H peptide histogram and the cell surface peptide-loaded MHC complexes were detected by fluorochrome-conjugated mAb (DB Biosciences) and quantified using FACS flow cytometer. B) and C) Groups of 3 BALB/c mice were given 3x immunizations using 100 µg of DNA expressing the index or mutated forms of HIVA at 3 wk intervals and their T cell responses were analyzed 4 wk later. B) Splenocytes were assessed in an ICS assay using peptides indicated above the graphs at concentrations ranging from 10 to 10^−8 µM for 5 h. Cells were gated on IFN-γ-producing CD8^+ T cell populations positive (top) or negative (bottom) for CD107a/b. Note the different y-axis scales on the top and bottom graphs. C) The response kinetics of CD8^+ T cells re-stimulated with 0.1 µM peptides was assessed in an ICS assay in 1-h intervals for a period of 4 h. Data shown are as mean±SD of [CD8^+CD107a/b^+IFN-γ^+ cells at each time point (%)] ÷ [CD8^+CD107a/b^+IFN-γ^+ at 4 h (%)]. One out of two independent experiments is shown.
TAP2 ([…])-deficient T2 cell lines stably expressing D^d, K^d, and L^d molecules kindly provided by Dr. Ted Hansen (Washington university, U.S.A.) were used to assess the ability of MHCs to bind each peptide. In brief, 1×10^5 cells were incubated with 0/0.1/1.0/10/100 µM peptides in no-serum RPMI (R-0) for 14 h at 37°C, 5% CO2 in a flat-bottomed 96-well plate. 14 h later, cells were transferred to a round-bottomed 96-well plate and washed with PBS before staining the cells with anti-H-2K^d/H-2D^d-PE or anti-H-2L^d-PE (eBioscience) monoclonal antibodies. Cells were then analyzed on a FACS flow cytometer.

[2] = tested on: CD8^+ T cells; test: ICS of HIVB-induced responses pre- and post-EcoHIV challenge; settings: Figure 7B, pTH.HIVB DNA twice

How did the “peptide binding affinities for respective MHC class I” value [1] turn out when AMQMLKDTI [G1] was run?
Its value is “directly correlated with the immunodominance hierarchy”.

What about the “CD8^+ T cell response after HIVB vaccination” value [2] of the same sequence?
Its value is “the only detectable CD8^+ T cell response”.
